Data reported in patent US9149038B2, “4-amino-6-(heterocyclic)picolinates and 6-amino-2-(heterocyclic)pyrimidine-4-carboxylates and their use as herbicides” (Dow AgroSciences LLC, priority 2013, dated 2015).
Where two headings read alike, the source gives them in different places.

Test system: Direct Seeded Rice and weed species
Assay: Postemergence herbicidal activity in direct seeded rice, visual rating after 20-22 days and probit GR20/GR50/GR80/GR90 (Table 14)
Assay type: in vivo
Settings: for pest or weed control at 17.5 g/ha / pest or weed control at 35 g/ha / pest or weed control at 70 g/ha: post-emergence, 504 h, postemergence; for pest or weed control at 17.5 g/ha: 17.5 g ai/ha; for pest or weed control at 35 g/ha: 35 g ai/ha; for pest or weed control at 70 g/ha: 70 g ai/ha
Method in brief: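 Rice and weeds grown in loam–sand soil (pH about 8.1) in greenhouse to 2nd–3rd true leaf, then sprayed postemergence at 187 L/ha in acetone/DMSO with 1.25% (v/v) Agri-dex crop oil. Injury rated visually 0–100 after 20-22 days versus untreated plants; GR20, GR50, GR80, GR90 obtained by probit analysis across dose rates.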

[1] = BRAPP (broadleaf signalgrass, Brachiaria platyphylla), read-out: Visual Growth Reduction (%) 21 Days After Application BRAPP
[2] = CYPDI (small-flower flatsedge, Cyperus difformis), read-out: Visual Growth Reduction (%) 21 Days After Application CYPDI
[3] = CYPES (yellow nutsedge, Cyperus esculentus), read-out: Visual Growth Reduction (%) 21 Days After Application CYPES
[4] = CYPIR (rice flatsedge, Cyperus iria), read-out: Visual Growth Reduction (%) 21 Days After Application CYPIR
[5] = DIGSA (large crabgrass, Digitaria sanguinalis), read-out: Visual Growth Reduction (%) 21 Days After Application DIGSA
[6] = ECHCG (barnyardgrass, Echinochloa crus-galli), read-out: Visual Growth Reduction (%) 21 Days After Application ECHCG
[7] = ECHCO (junglerice, Echinochloa colonum), read-out: Visual Growth Reduction (%) 21 Days After Application ECHCO
[8] = LEFCH (Chinese sprangletop, Leptochloa chinensis), read-out: Visual Growth Reduction (%) 21 Days After Application LEFCH
[9] = ORYSJ (Oryza sativa, rice crop), read-out: Visual Growth Reduction (%) 21 Days After Application ORYSJ
[10] = ORYSK (Oryza sativa, rice crop), read-out: Visual Growth Reduction (%) 21 Days After Application ORYSK
[11] = SCPJU (Japanese bulrush, Schoenoplectus juncoides Roxb.), read-out: Visual Growth Reduction (%) 21 Days After Application SCPJU
[12] = SEBEX (hemp sesbania, Sesbania exaltata), read-out: Visual Growth Reduction (%) 21 Days After Application SEBEX

SMILES: Nc1cc(-c2cc3c(cc2F)OC(F)(F)O3)nc(C(=O)O)c1Cl [Compound 42]
- GR50 BRAPP (BRAPP (Brachiaria platyphylla), probit analysis, dose for 50 percent growth reduction): 0.004 g ai/ha
- GR80 BRAPP (BRAPP (Brachiaria platyphylla), probit analysis, dose for 80 percent growth reduction): 0.2 g ai/ha
- GR90 BRAPP (BRAPP (Brachiaria platyphylla), probit analysis, dose for 90 percent growth reduction): 1 g ai/ha
- GR50 CYPDI (CYPDI (Cyperus difformis), probit analysis, dose for 50 percent growth reduction): 0.004 g ai/ha
- GR80 CYPDI (CYPDI (Cyperus difformis), probit analysis, dose for 80 percent growth reduction): 0.2 g ai/ha
- GR90 CYPDI (CYPDI (Cyperus difformis), probit analysis, dose for 90 percent growth reduction): 1 g ai/ha
- GR50 CYPES (CYPES (Cyperus esculentus), probit analysis, dose for 50 percent growth reduction): 0.4 g ai/ha
- GR80 CYPES (CYPES (Cyperus esculentus), probit analysis, dose for 80 percent growth reduction): 2 g ai/ha
- GR90 CYPES (CYPES (Cyperus esculentus), probit analysis, dose for 90 percent growth reduction): 5 g ai/ha
- GR50 CYPIR (CYPIR (Cyperus iria), probit analysis, dose for 50 percent growth reduction): 3 g ai/ha
- GR80 CYPIR (CYPIR (Cyperus iria), probit analysis, dose for 80 percent growth reduction): 5 g ai/ha
- GR90 CYPIR (CYPIR (Cyperus iria), probit analysis, dose for 90 percent growth reduction): 6 g ai/ha
- GR50 DIGSA (DIGSA (Digitaria sanguinalis), probit analysis, dose for 50 percent growth reduction): 0.004 g ai/ha
- GR80 DIGSA (DIGSA (Digitaria sanguinalis), probit analysis, dose for 80 percent growth reduction): 0.158 g ai/ha
- GR90 DIGSA (DIGSA (Digitaria sanguinalis), probit analysis, dose for 90 percent growth reduction): 1 g ai/ha
- GR50 ECHCG (ECHCG (Echinochloa crus-galli), probit analysis, dose for 50 percent growth reduction): 0.0001 g ai/ha
- GR80 ECHCG (ECHCG (Echinochloa crus-galli), probit analysis, dose for 80 percent growth reduction): 0.0001 g ai/ha
- GR90 ECHCG (ECHCG (Echinochloa crus-galli), probit analysis, dose for 90 percent growth reduction): 0.0001 g ai/ha
- GR50 ECHCO (ECHCO (Echinochloa colonum), probit analysis, dose for 50 percent growth reduction): 0.00015 g ai/ha
- GR80 ECHCO (ECHCO (Echinochloa colonum), probit analysis, dose for 80 percent growth reduction): 0.0207 g ai/ha
- GR90 ECHCO (ECHCO (Echinochloa colonum), probit analysis, dose for 90 percent growth reduction): 0.268 g ai/ha
- GR50 LEFCH (LEFCH (Leptochloa chinensis), probit analysis, dose for 50 percent growth reduction): 4 g ai/ha
- GR80 LEFCH (LEFCH (Leptochloa chinensis), probit analysis, dose for 80 percent growth reduction): 8 g ai/ha
- GR90 LEFCH (LEFCH (Leptochloa chinensis), probit analysis, dose for 90 percent growth reduction): 13 g ai/ha
- GR20 ORYSJ (ORYSJ (Oryza sativa, rice crop), probit analysis, dose for 20 percent growth reduction): 1 g ai/ha
- GR20 ORYSK (ORYSK (Oryza sativa, rice crop), probit analysis, dose for 20 percent growth reduction): 1 g ai/ha
- GR50 SCPJU (SCPJU (Schoenoplectus juncoides Roxb.), probit analysis, dose for 50 percent growth reduction): 0.0001 g ai/ha
- GR80 SCPJU (SCPJU (Schoenoplectus juncoides Roxb.), probit analysis, dose for 80 percent growth reduction): 0.0001 g ai/ha
- GR90 SCPJU (SCPJU (Schoenoplectus juncoides Roxb.), probit analysis, dose for 90 percent growth reduction): 0.0001 g ai/ha
- GR50 SEBEX (SEBEX (Sesbania exaltata), probit analysis, dose for 50 percent growth reduction): 2 g ai/ha
- GR80 SEBEX (SEBEX (Sesbania exaltata), probit analysis, dose for 80 percent growth reduction): 5 g ai/ha
- GR90 SEBEX (SEBEX (Sesbania exaltata), probit analysis, dose for 90 percent growth reduction): 9 g ai/ha
- pest or weed control at 17.5 g/ha [1]: 95 to 100%
- pest or weed control at 35 g/ha [1]: 95 to 100%
- pest or weed control at 70 g/ha [1]: 95 to 100%
- pest or weed control at 17.5 g/ha [2]: 95 to 100%
- pest or weed control at 35 g/ha [2]: 95 to 100%
- pest or weed control at 70 g/ha [2]: 95 to 100%
- pest or weed control at 17.5 g/ha [3]: 95 to 100%
- pest or weed control at 35 g/ha [3]: 95 to 100%
- pest or weed control at 70 g/ha [3]: 95 to 100%
- pest or weed control at 17.5 g/ha [4]: 95 to 100%
- pest or weed control at 35 g/ha [4]: 95 to 100%
- pest or weed control at 70 g/ha [4]: 95 to 100%
- pest or weed control at 17.5 g/ha [5]: 95 to 100%
- pest or weed control at 35 g/ha [5]: 95 to 100%
- pest or weed control at 70 g/ha [5]: 95 to 100%
- pest or weed control at 17.5 g/ha [6]: 95 to 100%
- pest or weed control at 35 g/ha [6]: 95 to 100%
- pest or weed control at 70 g/ha [6]: 95 to 100%
- pest or weed control at 17.5 g/ha [7]: 95 to 100%
- pest or weed control at 35 g/ha [7]: 95 to 100%
- pest or weed control at 70 g/ha [7]: 95 to 100%
- pest or weed control at 17.5 g/ha [8]: 95 to 100%
- pest or weed control at 35 g/ha [8]: 95 to 100%
- pest or weed control at 70 g/ha [8]: 95 to 100%
- pest or weed control at 17.5 g/ha [9]: 85 to 94%
- pest or weed control at 35 g/ha [9]: 95 to 100%
- pest or weed control at 70 g/ha [9]: 95 to 100%
- pest or weed control at 17.5 g/ha [10]: 60 to 74%
- pest or weed control at 35 g/ha [10]: 75 to 84%
- pest or weed control at 70 g/ha [10]: 75 to 84%
- pest or weed control at 17.5 g/ha [11]: 95 to 100%
- pest or weed control at 35 g/ha [11]: 95 to 100%
- pest or weed control at 70 g/ha [11]: 95 to 100%
- pest or weed control at 17.5 g/ha [12]: 95 to 100%
- pest or weed control at 35 g/ha [12]: 95 to 100%
- pest or weed control at 70 g/ha [12]: 95 to 100%
